Assay results from PMC9884426, “A phase 1 clinical trial of the repurposable acetyllysine mimetic, n-methyl-2-pyrrolidone (NMP), in relapsed or refractory multiple myeloma” (Clinical Epigenetics, 2023).

Assays:
BET-bromodomains = system: BET-bromodomains; set-up: method as in PMID 26047594, PMID 24813887; conditions: suppression of LPS-induced TNFα-secretion, downregulation of cMYC expression; cited from earlier work
Healthy human volunteers = system: Healthy human volunteers; set-up: method as in PMID 9029058, PMID 15458014; conditions: up to 100 mg orally and 300 mg transdermally; cited from earlier work
[1] = system: patients with relapsed/refractory multiple myeloma (RR–MM); assay: Phase 1 dose-escalation trial of oral NMP: safety, adverse events (CTCAE 4.03), DLT, MTD; type: in vivo
Procedure: This was a phase 1, open-label dose-escalation trial of orally administered NMP in patients with relapsed/refractory multiple myeloma (RR–MM). Eligible patients were ≥ 18 years old with Eastern Cooperative Oncology Group (ECOG) < 2 and histologically confirmed plasma cell myeloma defined by WHO 2008 criteria with measurable disease (defined by serum M-protein > 5 g/L, urine M-protein > 200 mg/24 h, involved serum free light chain > 100 mg/L or measurable soft tissue plasmacytoma). Patients were required to have relapsed following prior treatment and/or be refractory to or intolerant of both bortezomib and lenalidomide and must have undergone autologous stem cell transplant (unless deemed ineligible at investigator discretion). Exclusion criteria included: central nervous system involvement, active second malignancy within two years, uncontrolled medical conditions contraindicating an investigational agent due to inadequate organ function and concomitant exposure to anti-myeloma therapies.
The primary study endpoint was to determine the MTD of orally administered NMP in patients with RR–MM. Secondary endpoints included safety, PK analyses, IMWG defined response rate and exploratory immunological biomarkers. Adverse events were defined according to Common Terminology Criteria for Adverse Events (CTCAE version 4.03). Haematological DLTs were defined as grade 4 neutropenia unresponsive to G-CSF, grade 4 thrombocytopenia and febrile neutropenia. Non-haematological DLTs were grade 3 or higher and considered probably related to study drug and not attributable to disease progression and those resulting treatment delays greater than two weeks due to drug-related toxicity. Self-limited (< 24 h) gastrointestinal side effects (e.g. nausea, diarrhoea) responding to supportive measures were not classified as DLTs.
Pharmaceutical grade NMP stock solution (Ashland, Columbus, OH, USA) was diluted in ORA SWEET® SF (Medical Flavouring Systems, Vic, Australia) oral syrup vehicle and sterile water to a final concentration of 50 mg/mL and dispensed weekly in amber glass bottles for storage a room temperature. NMP was administered as a single morning dose on an empty stomach at least 30 min prior to food. Patients were dosed according to an ‘accelerated’ escalation schedule (one patient per dose level) in the absence of significant toxicity until a DLT was experienced and then in a 3 × 3 ‘standard’ dose-escalation phase. Intra-patient dose escalation at 100 mg increments was also permitted whereby the MTD had not been determined and the patient tolerated two consecutive cycles without DLT or an objective disease response. Treatment was administered daily for 28-day cycles until withdrawal from protocol due to toxicity or disease progression.

SMILES: CN1CCCC1=O [NMP, N-methyl-2-pyrrolidone]
- concentration at which NMP phenocopies effects of BET-inhibitors (BET-bromodomains): 1 to 10 mM
- acute adverse effects after a single dose (Healthy human volunteers): no acute adverse effects
- grade 5 AEs ([1]; 13 patients): no grade 5 AEs
- Anaemia: Total ([1]; human, in vivo): 23%
- Anaemia: Total (patients) ([1]; human, in vivo): 3
- Anaemia: worst grade 1 (patients) ([1]; human, in vivo): 0
- Anaemia: worst grade 2 (patients) ([1]; human, in vivo): 1
- Anaemia: worst grade 3 (patients) ([1]; human, in vivo): 2
- Anaemia: worst grade 4 (patients) ([1]; human, in vivo): 0
- Anorexia: Total ([1]; human, in vivo): 23%
- Anorexia: Total (patients) ([1]; human, in vivo): 3
- Anorexia: worst grade 1 (patients) ([1]; human, in vivo): 0
- Anorexia: worst grade 2 (patients) ([1]; human, in vivo): 3
- Anorexia: worst grade 3 (patients) ([1]; human, in vivo): 0
- Anorexia: worst grade 4 (patients) ([1]; human, in vivo): 0
- Constipation: Total ([1]; human, in vivo): 15%
- Constipation: Total (patients) ([1]; human, in vivo): 2
- Constipation: worst grade 1 (patients) ([1]; human, in vivo): 1
- Constipation: worst grade 2 (patients) ([1]; human, in vivo): 1
- Constipation: worst grade 3 (patients) ([1]; human, in vivo): 0
- Constipation: worst grade 4 (patients) ([1]; human, in vivo): 0
- Diarrhoea: Total ([1]; human, in vivo): 23%
- Diarrhoea: Total (patients) ([1]; human, in vivo): 3
- Diarrhoea: worst grade 1 (patients) ([1]; human, in vivo): 2
- Diarrhoea: worst grade 2 (patients) ([1]; human, in vivo): 0
- Diarrhoea: worst grade 3 (patients) ([1]; human, in vivo): 1
- Diarrhoea: worst grade 4 (patients) ([1]; human, in vivo): 0
- Dizziness: Total ([1]; human, in vivo): 23%
- Dizziness: Total (patients) ([1]; human, in vivo): 3
- Dizziness: worst grade 1 (patients) ([1]; human, in vivo): 2
- Dizziness: worst grade 2 (patients) ([1]; human, in vivo): 1
- Dizziness: worst grade 3 (patients) ([1]; human, in vivo): 0
- Dizziness: worst grade 4 (patients) ([1]; human, in vivo): 0
- Dysgeusia: Total ([1]; human, in vivo): 15%
- Dysgeusia: Total (patients) ([1]; human, in vivo): 2
- Dysgeusia: worst grade 1 (patients) ([1]; human, in vivo): 2
- Dysgeusia: worst grade 2 (patients) ([1]; human, in vivo): 0
- Dysgeusia: worst grade 3 (patients) ([1]; human, in vivo): 0
- Dysgeusia: worst grade 4 (patients) ([1]; human, in vivo): 0
- Fatigue: Total ([1]; human, in vivo): 23%
- Fatigue: Total (patients) ([1]; human, in vivo): 3
- Fatigue: worst grade 1 (patients) ([1]; human, in vivo): 3
- Fatigue: worst grade 2 (patients) ([1]; human, in vivo): 0
- Fatigue: worst grade 3 (patients) ([1]; human, in vivo): 0
- Fatigue: worst grade 4 (patients) ([1]; human, in vivo): 0
- Fever: Total ([1]; human, in vivo): 15%
- Fever: Total (patients) ([1]; human, in vivo): 2
- Fever: worst grade 1 (patients) ([1]; human, in vivo): 0
- Fever: worst grade 2 (patients) ([1]; human, in vivo): 0
- Fever: worst grade 3 (patients) ([1]; human, in vivo): 1
- Fever: worst grade 4 (patients) ([1]; human, in vivo): 1
- Grade 3–4 adverse events, patients ([1]; human, in vivo): 54%
- Musculoskeletal pain: Total ([1]; human, in vivo): 38%
- Musculoskeletal pain: Total (patients) ([1]; human, in vivo): 5
- Musculoskeletal pain: worst grade 1 (patients) ([1]; human, in vivo): 2
- Musculoskeletal pain: worst grade 2 (patients) ([1]; human, in vivo): 3
- Musculoskeletal pain: worst grade 3 (patients) ([1]; human, in vivo): 0
- Musculoskeletal pain: worst grade 4 (patients) ([1]; human, in vivo): 0
- Nausea: Total ([1]; human, in vivo): 54%
- Nausea: Total (patients) ([1]; human, in vivo): 7
- Nausea: worst grade 1 (patients) ([1]; human, in vivo): 1
- Nausea: worst grade 2 (patients) ([1]; human, in vivo): 6
- Nausea: worst grade 3 (patients) ([1]; human, in vivo): 0
- Nausea: worst grade 4 (patients) ([1]; human, in vivo): 0
- Neutrophil count decreased: Total (patients) ([1]; human, in vivo): 3
- Neutrophil count decreased: worst grade 1 (patients) ([1]; human, in vivo): 0
- Neutrophil count decreased: worst grade 2 (patients) ([1]; human, in vivo): 1
- Neutrophil count decreased: worst grade 3 (patients) ([1]; human, in vivo): 2
- Neutrophil count decreased: worst grade 4 (patients) ([1]; human, in vivo): 0
- Overall adverse events: Total ([1]; human, in vivo): 100%
- Overall adverse events: Total (patients) ([1]; human, in vivo): 13
- Overall adverse events: worst grade 1 (patients) ([1]; human, in vivo): 1
- Overall adverse events: worst grade 2 (patients) ([1]; human, in vivo): 5
- Overall adverse events: worst grade 3 (patients) ([1]; human, in vivo): 6
- Overall adverse events: worst grade 4 (patients) ([1]; human, in vivo): 1
- Peripheral sensory neuropathy: Total ([1]; human, in vivo): 23%
- Peripheral sensory neuropathy: Total (patients) ([1]; human, in vivo): 3
- Peripheral sensory neuropathy: worst grade 1 (patients) ([1]; human, in vivo): 0
- Peripheral sensory neuropathy: worst grade 2 (patients) ([1]; human, in vivo): 3
- Peripheral sensory neuropathy: worst grade 3 (patients) ([1]; human, in vivo): 0
- Peripheral sensory neuropathy: worst grade 4 (patients) ([1]; human, in vivo): 0
- Pruritus: Total ([1]; human, in vivo): 15%
- Pruritus: Total (patients) ([1]; human, in vivo): 2
- Pruritus: worst grade 1 (patients) ([1]; human, in vivo): 2
- Pruritus: worst grade 2 (patients) ([1]; human, in vivo): 0
- Pruritus: worst grade 3 (patients) ([1]; human, in vivo): 0
- Pruritus: worst grade 4 (patients) ([1]; human, in vivo): 0
- Renal dysfunction: Total ([1]; human, in vivo): 15%
- Renal dysfunction: Total (patients) ([1]; human, in vivo): 2
- Renal dysfunction: worst grade 1 (patients) ([1]; human, in vivo): 0
- Renal dysfunction: worst grade 2 (patients) ([1]; human, in vivo): 0
- Renal dysfunction: worst grade 3 (patients) ([1]; human, in vivo): 2
- Renal dysfunction: worst grade 4 (patients) ([1]; human, in vivo): 0
- Sore throat: Total ([1]; human, in vivo): 15%
- Sore throat: Total (patients) ([1]; human, in vivo): 2
- Sore throat: worst grade 1 (patients) ([1]; human, in vivo): 2
- Sore throat: worst grade 2 (patients) ([1]; human, in vivo): 0
- Sore throat: worst grade 3 (patients) ([1]; human, in vivo): 0
- Sore throat: worst grade 4 (patients) ([1]; human, in vivo): 0
- URTI: Total ([1]; human, in vivo): 15%
- URTI: Total (patients) ([1]; human, in vivo): 2
- URTI: worst grade 1 (patients) ([1]; human, in vivo): 0
- URTI: worst grade 2 (patients) ([1]; human, in vivo): 2
- URTI: worst grade 3 (patients) ([1]; human, in vivo): 0
- URTI: worst grade 4 (patients) ([1]; human, in vivo): 0
- overall DLT rate ([1]; human, in vivo): 8%
- maximum tolerated dose (MTD) ([1]; human, in vivo, po): not defined
- dose limiting toxicity (DLT) event ([1]; in vivo): diarrhoea
